Source: patent US20240052316A1, “STEM CELL PRIMING COMPOSITION AND PRIMED STEM CELL” (SCM LIFESCIENCE CO., LTD., priority 2020, published 2024)

Test system: IDO and TSG6
Experiment: qRT-PCR of IDO and TSG6 expression in primed mesenchymal stem cells (joint statements)
Format: cell-based
Conditions: 24 hours; for expression of IDO and TSG6 compared to untreated control group 0: Table 1 groups, FIG. 4; for lowest effective concentration capable of inducing significantly increased expression of both TSG6 and IDO: tested 5, 10, 20 ng/ml (TNF-α, IFN-γ) and 10, 20, 40 ng/ml (IFN-α), FIGS. 1-3
Procedure: In a 37° C. and 5% CO2 incubator, mesenchymal stem cells in a storage state (LN2 tank storage) were thawed and cultured, and at this time, the cells were cultured in a medium (DMEM, alpha-MEM) containing 10% FBS or 4% hPL until proliferated to a cell confluence of about 80%. The cultured mesenchymal stem cells were seeded in a 100 mm dish, and treated with candidate substances for reinforcing the functions of the mesenchymal stem cells for 24 hours, and then the concentrations of primary candidate substances for reinforcing the functions were set.
TNF-α and IFN-γIFN-α were selected as the primary candidate substances, and in order to confirm the lowest effective concentration capable of increasing the expression of TNFα-stimulated gene-6 (TSG6) and indoleamine 2,3-dioxygenase (IDO) to confirm the reinforced functions, the stem cells were treated with 5, 10, and 20 ng/ml of TNF-α, 5, 10, and 20 ng/ml of IFN-γ, and 10, 20, and 40 ng/ml of IFN-α, respectively, and changes in expression of TSG6 and IDO were confirmed.
The IDO was known as an immunomodulatory factor that inhibited the proliferation of immune cells such as T cells by converting tryptophan, which was essential for T cell proliferation, into kynurenine, and the TSG6 was known as an anti-inflammatory regulator secreted by mesenchymal stem cells. After culturing the stem cells, total RNA was isolated using TRIzol (Invitrogen), and then cDNA was synthesized from total RNA using PrimeScriptTMRT reagent Kit with gDNA Eraser (TaKaRa), and qRT-PCR was performed. The results of TSG6 and IDO according to the concentration of each candidate substance were illustrated in FIGS. 1, 2 and 3.
Through Example 1, candidate substances and concentration combinations thereof selected to search for more functionally reinforced compositions based on the candidate substances and the lowest effective concentrations confirmed to induce the reinforced functions of stem cells were set as shown in Table 1. Mesenchymal stem cells were treated with the candidate combinations described in Table 1 below for 24 hours, and the stem cells were cultured as in Example 1, and then total RNA was isolated using TRIzol (Invitrogen). Then, qRT-PCR was performed by synthesizing cDNA from total RNA using the PrimeScript™ RT reagent Kit with gDNA Eraser (TaKaRa).
Vitamins were known to improve the proliferative ability of stem cells and maintain the stemness of stem cells when added during a stem cell culture process. Accordingly, various vitamins were treated in the stem cell culture process, and experiments were performed to confirm whether or not vitamins could achieve anti-inflammatory and immune function reinforcing effects of stem cells. Specifically, the stem cells were treated with various types of vitamins shown in Table 2 according to the method described in Example 1, and the results of confirming changes in expression of IDO and TSG6 according to treatment with each candidate substance were illustrated in FIG. 5.

With IFN-α the “expression of IDO and TSG6 compared to untreated control group 0” value was “increased expression of IDO and TSG6” and the “lowest effective concentration capable of inducing significantly increased expression of both TSG6 and IDO” value was 20 ng/mL.
With “IFN-γ: cytokine, primary candidate substance for priming stem cells, 10 ng/ml” the “expression of IDO and TSG6 compared to untreated control group 0” value was “increased expression of IDO and TSG6” and the “lowest effective concentration capable of inducing significantly increased expression of both TSG6 and IDO” value was 10 ng/mL.
For TNF-α, the “expression of IDO and TSG6 compared to untreated control group 0” value was “increased expression of IDO and TSG6” and the “lowest effective concentration capable of inducing significantly increased expression of both TSG6 and IDO” value was 10 ng/mL.
